# Reference: patent US11712434B2, “Compound having anti-cancer effect, and preparation method therefor and use thereof” (3D MEDICINES (BEIJING) CO., LTD., priority 2016, dated 2023)
# Key:
# Test in all cases: Cell proliferation assay (Alamar Blue)
# Type in all cases: cell-based
# 22RV1 = 22RV1 tumor cell line, 6 days culture
# Outline: (§1)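 Antiproliferative IC50 determined in a 6-day assay with AlamarBlue fluorescence read-out (Ex 560, Em 590 nm). Top test concentration was 100 or 30 μM according to solubility.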
# AN3CA = AN3CA tumor cell line, 6 days culture
# Outline: as §1
# CCRF-CEM = CCRF-CEM tumor cell line, 6 days culture
# Outline: as §1
# DU145 = DU145 tumor cell line, 6 days culture
# Outline: as §1
# HEPG2 = HEPG2 liver cancer cell line, 6 days culture
# Outline: as §1
# HLF = HLF liver cancer cell line, 6 days culture
# Outline: as §1
# HT55 = HT55 tumor cell line, 6 days culture
# Outline: as §1
# HUH1 = HUH1 liver cancer cell line, 6 days culture
# Outline: as §1
# Hep3B2.1-7 = Hep3B2.1-7 liver cancer cell line, 6 days culture
# Outline: as §1
# JHH1 = JHH1 liver cancer cell line, 6 days culture
# Outline: as §1
# JHH2 = JHH2 liver cancer cell line, 6 days culture
# Outline: as §1
# JHH4 = JHH4 liver cancer cell line, 6 days culture
# Outline: as §1
# JHH5 = JHH5 liver cancer cell line, 6 days culture
# Outline: as §1
# JHH7 = JHH7 liver cancer cell line, 6 days culture
# Outline: as §1
# KASUMI-1 = KASUMI-1 (leukemia cells), 6 days culture
# Outline: as §1
# MDA-MB-231 = MDA-MB-231 tumor cell line, 6 days culture
# Outline: as §1
# MDA-MB-435S = MDA-MB-435S tumor cell line, 6 days culture
# Outline: as §1
# MG63 = MG63 tumor cell line, 6 days culture
# Outline: as §1
# NCI-H1648 = NCI-H1648 tumor cell line, 6 days culture
# Outline: as §1
# NCI-H2170 = NCI-H2170 tumor cell line, 6 days culture
# Outline: as §1
# NCI-H716 = NCI-H716 tumor cell line, 6 days culture
# Outline: as §1
# SK-HEP-1 = SK-HEP-1 liver cancer cell line, 6 days culture
# Outline: as §1
# SNU398 = SNU398 liver cancer cell line, 6 days culture
# Outline: as §1
# SNU449 = SNU449 liver cancer cell line, 6 days culture
# Outline: as §1
# SNU475 = SNU475 liver cancer cell line, 6 days culture
# Outline: as §1
# SNU739 = SNU739 liver cancer cell line, 6 days culture
# Outline: as §1
# SW620 = SW620 tumor cell line, 6 days culture
# Outline: as §1
compound,measurement,setting,value
Cc1ccc(F)c(NC(=O)Nc2ccc(-c3cccc4[nH]nc(NC(=O)CCCCCCCCCCCNC(=O)C[C@H](N)C(=O)N[C@@H](CCC(=O)N[C@@H](CCC(=O)N[C@@H](CCC(=O)N[C@@H](CCC(=O)N[C@@H](CCC(=O)N[C@@H](CCC(=O)N[C@@H](CCC(=O)N[C@@H](CCC(=O)N[C@@H](CCC(=O)O)C(=O)O)C(=O)O)C(=O)O)C(=O)O)C(=O)O)C(=O)O)C(=O)O)C(=O)O)C(=O)O)c34)cc2)c1 [Compound 9],IC50,22RV1,> 100 µM
same,IC50,AN3CA,10.3 µM
same,IC50,CCRF-CEM,> 100 µM
same,IC50,DU145,> 100 µM
same,IC50,HEPG2,33.6 µM
same,IC50,HLF,> 100 µM
same,IC50,HT55,> 100 µM
same,IC50,HUH1,> 100 µM
same,IC50,Hep3B2.1-7,> 100 µM
same,IC50,JHH1,> 100 µM
same,IC50,JHH2,> 100 µM
same,IC50,JHH4,> 100 µM
same,IC50,JHH5,> 100 µM
same,IC50,JHH7,> 100 µM
same,IC50,KASUMI-1,0.87 µM
same,IC50,MDA-MB-231,> 100 µM
same,IC50,MDA-MB-435S,> 100 µM
same,IC50,MG63,> 100 µM
same,IC50,NCI-H1648,> 100 µM
same,IC50,NCI-H2170,> 100 µM
same,IC50,NCI-H716,77.2 µM
same,IC50,SK-HEP-1,> 100 µM
same,IC50,SNU398,> 100 µM
same,IC50,SNU449,> 100 µM
same,IC50,SNU475,> 100 µM
same,IC50,SNU739,> 100 µM
same,IC50,SW620,> 100 µM
Cc1ccc(F)c(NC(=O)Nc2ccc(-c3cccc4[nH]nc(NC(=O)C[C@H](N)C(=O)O)c34)cc2)c1 [Compound 10],IC50,"22RV1; Homo sapiens, 144 h",6.37 µM
same,IC50,"AN3CA; Homo sapiens, AN3-CA, 144 h",0.27 µM
same,IC50,"CCRF-CEM; Homo sapiens, 144 h",5.46 µM
same,IC50,"DU145; Homo sapiens, DU-145, 144 h",3.62 µM
same,IC50,"HEPG2; Homo sapiens, 144 h",0.97 µM
same,IC50,HLF; 144 h,4.85 µM
same,IC50,"HT55; Homo sapiens, 144 h",18.5 µM
same,IC50,"HUH1; Homo sapiens, HuH-1, 144 h",3.88 µM
same,IC50,Hep3B2.1-7; 144 h,2.43 µM
same,IC50,JHH1; 144 h,14.5 µM
same,IC50,"JHH2; JHH-2, 144 h",36.8 µM
same,IC50,"JHH4; JHH-4, 144 h",14.4 µM
same,IC50,JHH5; 144 h,13.4 µM
same,IC50,JHH7; 144 h,1.36 µM
same,IC50,"KASUMI-1; Homo sapiens, 144 h",0.01 µM
same,IC50,"MDA-MB-231; Homo sapiens, 144 h",4.63 µM
same,IC50,"MDA-MB-435S; Homo sapiens, 144 h",9.46 µM
same,IC50,"MG63; Homo sapiens, MG-63, 144 h",1.95 µM
same,IC50,"NCI-H1648; Homo sapiens, 144 h",7.42 µM
same,IC50,"NCI-H2170; Homo sapiens, 144 h",4.28 µM
same,IC50,"NCI-H716; Homo sapiens, 144 h",5.09 µM
same,IC50,"SK-HEP-1; Homo sapiens, SK-HEP1, 144 h",14.9 µM
same,IC50,"SNU398; Homo sapiens, SNU-398, 144 h",1.64 µM
same,IC50,"SNU449; Homo sapiens, SNU-449, 144 h",13.9 µM
same,IC50,"SNU475; Homo sapiens, SNU-475, 144 h",4.39 µM
same,IC50,"SNU739; SNU-739, 144 h",5.29 µM
same,IC50,"SW620; Homo sapiens, SW-620, 144 h",3.46 µM
Cc1ccc(F)c(NC(=O)Nc2ccc(-c3cccc4[nH]nc(NC(=O)CCCCCNC(=O)C[C@H](N)C(=O)O)c34)cc2)c1 [Compound 11],IC50,22RV1,> 100 µM
same,IC50,AN3CA,17.4 µM
same,IC50,CCRF-CEM,> 100 µM
same,IC50,DU145,> 100 µM
same,IC50,HEPG2,30.1 µM
same,IC50,HLF,95.7 µM
same,IC50,HT55,> 100 µM
same,IC50,HUH1,> 100 µM
same,IC50,Hep3B2.1-7,> 100 µM
same,IC50,JHH1,> 100 µM
same,IC50,JHH2,> 100 µM
same,IC50,JHH4,> 100 µM
same,IC50,JHH5,> 100 µM
same,IC50,JHH7,> 100 µM
same,IC50,KASUMI-1,1.09 µM
same,IC50,MDA-MB-231,> 100 µM
same,IC50,MDA-MB-435S,> 100 µM
same,IC50,MG63,> 100 µM
same,IC50,NCI-H1648,> 100 µM
same,IC50,NCI-H2170,> 100 µM
same,IC50,NCI-H716,67.4 µM
same,IC50,SK-HEP-1,> 100 µM
same,IC50,SNU398,> 100 µM
same,IC50,SNU449,> 100 µM
same,IC50,SNU475,> 100 µM
same,IC50,SNU739,> 100 µM
same,IC50,SW620,> 100 µM
Cc1ccc(F)c(NC(=O)Nc2ccc(-c3cccc4[nH]nc(NC(=O)CCCCCCCCCCCNC(=O)C[C@H](N)C(=O)O)c34)cc2)c1 [Compound 12],IC50,22RV1,95.6 µM
same,IC50,AN3CA,3.84 µM
same,IC50,CCRF-CEM,> 100 µM
same,IC50,DU145,83 µM
same,IC50,HEPG2,9.27 µM
same,IC50,HLF,> 100 µM
same,IC50,HT55,> 100 µM
same,IC50,HUH1,> 100 µM
same,IC50,Hep3B2.1-7,79.6 µM
same,IC50,JHH1,> 100 µM
same,IC50,JHH2,> 100 µM
same,IC50,JHH4,> 100 µM
same,IC50,JHH5,> 100 µM
same,IC50,JHH7,67.2 µM
same,IC50,KASUMI-1,0.49 µM
same,IC50,MDA-MB-231,79.5 µM
same,IC50,MDA-MB-435S,> 100 µM
same,IC50,MG63,> 100 µM
same,IC50,NCI-H1648,> 100 µM
same,IC50,NCI-H2170,59.2 µM
same,IC50,NCI-H716,35.5 µM
same,IC50,SK-HEP-1,> 100 µM
same,IC50,SNU398,> 100 µM
same,IC50,SNU449,> 100 µM
same,IC50,SNU475,> 100 µM
same,IC50,SNU739,> 100 µM
same,IC50,SW620,55.6 µM
